Laboratory results taken from article PMC4832243, “Discovery of Potent VEGFR-2 Inhibitors based on Furopyrimidine and Thienopyrimidne Scaffolds as Cancer Targeting Agents” (Scientific Reports, 2016).

Assays:
[1] = system: HUVEC umbilical vein endothelial cells; experiment: In vitro HUVEC anti-proliferative assay (alamarBlue); format: cell-based; settings: Homo sapiens, HUVEC proliferation at 10 μM, 72 hours; for activity at 10 µM: read-out: % Cell growth; for inhibition at 10 µM: read-out: % Cell inhibition
[2] = target: c-Kit (Homo sapiens, UniProt P10721); experiment: In vitro multiple-kinase inhibition assay, c-Kit (ADP-Glo); format: biochemical
Procedure: (§1) In vitro multiple-kinase inhibition assay. […] Kinase enzymatic activity of the tested compounds was evaluated against a reference kinase inhibitor at 10 μM (Table 2).
(§2) The multiple kinases activity at single dose concentration of 10 μM was performed, c-Kit, c-Raf, c-Src, RET served as the enzyme source. […] Kinase-Glo Plus Luminescence kinase assay kit (Promega#V3772), ADP-Glo Luminescence assay kit was used for c-kit assay (Supplementary). […]
(§3) mM MgCl2, 0.1 mg/ml BSA, 1 mM DTT, 10 µM ATP, Kinase substrate and VEGFR. After the enzymatic reaction, 50 µl of Kinase-Glo Plus Luminescence kinase assay solution (Promega) was added to each reaction and incubate the plate for 5 minutes at room temperature.
(§4) Luminescence signal was measured using a BioTek Synergy 2 microplate reader. VEGFR activity assays were performed in duplicate at each concentration.
(§5) The luminescence data were analyzed using the computer software, Graphpad Prism. The difference between luminescence intensities in the absence of VEGFR (Lut) and in the presence of VEGFR (Luc) was defined as 100 % activity (Lut – Luc). Using luminescence signal (Lu) in the presence of the compound, % activity was calculated as:
(§6) % activity = {(Lut - Lu)/(Lut - Luc)}×100%, where Lu= the luminescence intensity in the […]
(§7) IC50 determination for inhibitor against VEGFR was calculated. The values of % activity versus a series of compound concentrations (1 nM - 10 nM - 100 nM - 1 µM - 10 µM) were then […]
(§8) or Hill coefficient. The IC50 value was determined by the concentration causing a half-maximal […]
(§9) In vitro multiple-kinase inhibition assay
The assay was performed using the same conditions for VEGFR-2 activity assay (section 5.2.1.1). The assays for c-Kit was an exception, it was performed using ADP-Glo Kinase assay reagents (Promega). It measures kinase activity by quantitating the ADP amount produced from the enzymatic reaction. The luminescent signal from the assay is correlated with the amount of ADP present and is directly correlated with the amount of kinase activity. Other conditions are same to the previous section except the final reaction volume was reduced to 25 µl. After the 40 min kinase reaction at 30 °C, 25 µl of ADP-Glo reagent was added and incubated for 45 min at room temperature followed by another 50 min incubation with 50 µl of Kinase detection mixture.
(§10) Luminescence signal was measured using a BioTek Synergy 2 microplate reader […]
(§11) The luminescence data were analyzed using the same computer software and the same protocol

[3] = target: c-Src (Homo sapiens, UniProt P12931); experiment: In vitro multiple-kinase inhibition assay, c-Src; format: biochemical
Procedure: as §1, §2, §3, §4, §5, §6, §7, §8, §9, §10, §11

[4] = target: T1, VEGFR-2 (KDR) (Homo sapiens, UniProt P35968); experiment: In vitro VEGFR-2 tyrosine kinase activity (Kinase-Glo Plus luminescence, BPS Bioscience); format: biochemical; settings: for IC50: 5 concentrations 1 nM - 10 μM
T1 construct: purchased BPS Bioscience 40301

[5] = target: c-Raf (Homo sapiens, UniProt P04049); experiment: In vitro multiple-kinase inhibition assay, c-Raf; format: biochemical
Procedure: as §1, §2, §3, §4, §5, §6, §7, §8, §9, §10, §11

[6] = target: RET (Homo sapiens, UniProt P07949); experiment: In vitro multiple-kinase inhibition assay, RET; format: biochemical
Procedure: as §1, §2, §3, §4, §5, §6, §7, §8, §9, §10, §11

[7] = system: Ehrlich ascites carcinoma (EAC) solid tumor; experiment: In vivo anticancer activity, EAC solid tumor murine model; set-up: species or system Swiss albino mice; settings: for TGI (%): once daily for 8 consecutive days; for Histopathological examination of EAC tumor sections (necrosis): hematoxylin-eosin, 40x
Procedure: Animals. Female Swiss albino mice weighing 15–20 g were used in the present study. They were obtained from the animal breeding laboratory, National Cancer Institute (NCI), Cairo University, Egypt. Animals were kept in our animal facility, faculty of pharmacy, Ain Shams university at 25 ± 2 °C and a relative humidity of 40–45% with alternative day and night cycles of 12 h each. Animals had free access to pellet food and water ad libitum. Standard diet pellets (El-Nasr, Abu Zaabal, Egypt) contained not less than 20% protein, 5% fiber, 3.5% fat, 6.5% ash and a vitamin mixture. Animal care and experiments were conducted in accordance with the protocols approved by the Ethics Research Committee, Faculty of Pharmacy, Ain Shams University, following the Institutional Animal Care and Use Committee guidelines.
Tumor cells preparation and transplantation. Ehrlich ascites carcinoma (EAC) cells were obtained from NCI, Cairo University, Egypt. EAC cells were maintained in the ascitic form in Swiss albino mice by intraperitoneal transplantation of each mouse every 10 days. Ascitic fluid was drawn from tumor-bearing mice at the log phase (7–8th day of tumor bearing) of the tumor cells. The freshly drawn fluid was diluted with ice-cold sterile isotonic saline. 200 μl tumor cell suspension containing 2 × 10^6 tumor cells were then subcutaneously injected in each mouse.
Experimental design. Swiss albino mice were divided into six groups (n = 6 per group).
Evaluation of effectiveness. Tumor growth curve was drawn according to the change in tumor volume from first day of treatment (day 0) till day 7. Longest and shortest diameters of the solid tumor were monitored using a digital vernier caliper. Tumor volume (TV) of each animal was calculated using the following formula: […]
Tumor growth inhibition (TGI) was calculated as follows.
RTV = (Tumor volume at the day of measurement)/Tumor volume at the initial day.
Histopathological Examination
thickness by slidge microtome.
graded ethanol solutions.

[8] = system: active caspase 3; experiment: Immunohistochemistry of EAC solid tumor sections, active caspase 3; settings: oral treatment of EAC-bearing mice
[9] = Toxicity: vital organs' indices and histopathology in EAC solid tumor bearing mice; format: in vivo, Swiss albino mice; settings: for Brain Index / Heart Index / Kidney Index / Liver Index: mean ± SD (n = 6); for Histopathological examination of liver, kidney, heart and brain samples: 10 mg/kg, EAC solid tumor bearing mice (40x)
[10] = system: CD31 and CD34 (% MVD); experiment: Immunohistochemistry of EAC solid tumor sections, microvessel density (CD31, CD34); settings: oral treatment of EAC-bearing mice
[11] = target: phospho-VEGFR-2 (Tyr951) (Mus musculus, UniProt P35918); experiment: Immunohistochemistry of EAC solid tumor sections, phospho-VEGFR-2; settings: oral treatment of EAC-bearing mice
[12] = system: VEGF-induced vascular permeability (Evans Blue extravasation); experiment: Miles vascular permeability assay; set-up: species or system mice; settings: in vivo; 10 mg/kg (Fig. 15)
Procedure: Miles Vascular Permeability Assay. One to two days prior to the experiment, mice were shaved to expose the skin. Mice were anesthetized with intra-peritoneal injection of Avertin. A sterile solution of 1% Evans Blue (EB) in PBS was prepared and 100 μl was injected IV into the tail vein, using a needle (small gauge, 27–30) at a 10–15 degree angle. The animals were then left for (30–60) min. VEGF (50 μl of 1 ng/μl) and 50 μl of PBS with 0.05% gelatin were injected intradermally using a 30-gauge needle into the skin overlying the back. After 20 min, the animals were sacrificed by cervical dislocation that is recommended to limit significant interference with vascular permeability. The skin was opened, exposed and representative pictures were taken to assess the intensity of EB […]. The Formamide/EB mixture was centrifuged and supernatant absorbance was measured at 600 nm (Shimadzu Spectrophotometer, UV-1601; Japan). extravasation was calculated as ng EB per mg tissue.

[13] = system: wild-type b-Raf; settings: read-out: wild-type b-Raf IC50; cited from earlier work
[14] = target: fms-related tyrosine kinase 3 receptor (FLT3); settings: cited from earlier work
[15] = system: platelet-derived growth factor receptor-B (PDGFR-B); settings: cited from earlier work
[16] = target: RET tyrosine kinase; set-up: method as in PMID 16507829; settings: cited from earlier work
[17] = system: stem cell factor receptor (c-KIT); settings: cited from earlier work
[18] = system: VEGFR-2; settings: read-out: VEGFR-2 IC50 of pyrrolo[3,2-d]pyrimidine derivative (III); cited from earlier work

T1 sequence (P35968 20-1356): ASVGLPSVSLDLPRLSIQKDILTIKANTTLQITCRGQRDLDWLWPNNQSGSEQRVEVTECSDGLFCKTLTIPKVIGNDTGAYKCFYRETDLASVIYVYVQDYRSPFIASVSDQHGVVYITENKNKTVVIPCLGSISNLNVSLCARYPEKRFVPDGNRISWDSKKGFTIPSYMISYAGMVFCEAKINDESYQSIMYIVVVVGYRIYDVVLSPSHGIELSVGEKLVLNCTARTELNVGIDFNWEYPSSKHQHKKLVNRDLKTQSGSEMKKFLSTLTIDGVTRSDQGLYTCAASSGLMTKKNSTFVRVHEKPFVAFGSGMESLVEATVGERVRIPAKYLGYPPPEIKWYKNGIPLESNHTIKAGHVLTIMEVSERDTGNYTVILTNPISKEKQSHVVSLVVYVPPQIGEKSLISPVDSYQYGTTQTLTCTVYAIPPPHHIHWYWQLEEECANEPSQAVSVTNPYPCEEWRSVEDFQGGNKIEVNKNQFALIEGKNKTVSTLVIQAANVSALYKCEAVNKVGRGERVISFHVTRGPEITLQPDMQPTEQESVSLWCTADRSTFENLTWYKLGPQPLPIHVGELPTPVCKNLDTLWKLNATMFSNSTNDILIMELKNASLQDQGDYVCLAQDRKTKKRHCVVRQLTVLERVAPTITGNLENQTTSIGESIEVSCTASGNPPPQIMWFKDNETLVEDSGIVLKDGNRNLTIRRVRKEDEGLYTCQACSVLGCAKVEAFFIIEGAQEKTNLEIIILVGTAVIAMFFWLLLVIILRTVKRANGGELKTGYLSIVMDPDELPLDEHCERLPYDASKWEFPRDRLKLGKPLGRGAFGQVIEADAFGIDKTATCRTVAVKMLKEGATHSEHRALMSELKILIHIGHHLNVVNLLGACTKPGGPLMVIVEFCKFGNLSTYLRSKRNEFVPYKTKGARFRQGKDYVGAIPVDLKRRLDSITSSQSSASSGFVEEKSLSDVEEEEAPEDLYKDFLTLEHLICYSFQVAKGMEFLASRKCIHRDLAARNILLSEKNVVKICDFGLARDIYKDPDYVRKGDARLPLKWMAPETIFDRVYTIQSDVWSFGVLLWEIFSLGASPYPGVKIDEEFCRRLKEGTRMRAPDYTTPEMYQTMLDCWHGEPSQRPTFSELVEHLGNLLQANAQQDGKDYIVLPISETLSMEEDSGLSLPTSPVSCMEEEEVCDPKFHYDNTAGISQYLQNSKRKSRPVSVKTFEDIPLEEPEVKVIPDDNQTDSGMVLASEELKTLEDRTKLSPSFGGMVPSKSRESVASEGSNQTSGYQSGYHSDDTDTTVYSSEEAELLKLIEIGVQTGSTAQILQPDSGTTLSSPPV
Chain of c-Raf (P04049 whole entry, species assumed): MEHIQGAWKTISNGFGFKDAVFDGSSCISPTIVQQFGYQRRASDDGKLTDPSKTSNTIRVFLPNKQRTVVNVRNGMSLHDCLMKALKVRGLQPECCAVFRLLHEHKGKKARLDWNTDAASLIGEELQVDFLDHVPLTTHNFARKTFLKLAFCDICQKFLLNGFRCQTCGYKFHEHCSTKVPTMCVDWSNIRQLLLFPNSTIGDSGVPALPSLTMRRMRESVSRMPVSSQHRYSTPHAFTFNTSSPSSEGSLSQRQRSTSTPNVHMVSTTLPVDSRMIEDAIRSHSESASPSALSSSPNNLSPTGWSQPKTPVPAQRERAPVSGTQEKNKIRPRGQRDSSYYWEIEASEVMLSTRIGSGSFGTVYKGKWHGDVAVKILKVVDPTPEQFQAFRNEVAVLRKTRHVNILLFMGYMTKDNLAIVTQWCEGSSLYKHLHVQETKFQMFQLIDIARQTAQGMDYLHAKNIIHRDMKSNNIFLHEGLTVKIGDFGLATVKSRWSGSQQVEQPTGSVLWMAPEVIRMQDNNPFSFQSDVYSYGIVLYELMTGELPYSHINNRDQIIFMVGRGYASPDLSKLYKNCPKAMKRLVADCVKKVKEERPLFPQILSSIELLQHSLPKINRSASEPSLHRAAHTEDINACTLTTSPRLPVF
Chain of c-Src (P12931 whole entry, species assumed): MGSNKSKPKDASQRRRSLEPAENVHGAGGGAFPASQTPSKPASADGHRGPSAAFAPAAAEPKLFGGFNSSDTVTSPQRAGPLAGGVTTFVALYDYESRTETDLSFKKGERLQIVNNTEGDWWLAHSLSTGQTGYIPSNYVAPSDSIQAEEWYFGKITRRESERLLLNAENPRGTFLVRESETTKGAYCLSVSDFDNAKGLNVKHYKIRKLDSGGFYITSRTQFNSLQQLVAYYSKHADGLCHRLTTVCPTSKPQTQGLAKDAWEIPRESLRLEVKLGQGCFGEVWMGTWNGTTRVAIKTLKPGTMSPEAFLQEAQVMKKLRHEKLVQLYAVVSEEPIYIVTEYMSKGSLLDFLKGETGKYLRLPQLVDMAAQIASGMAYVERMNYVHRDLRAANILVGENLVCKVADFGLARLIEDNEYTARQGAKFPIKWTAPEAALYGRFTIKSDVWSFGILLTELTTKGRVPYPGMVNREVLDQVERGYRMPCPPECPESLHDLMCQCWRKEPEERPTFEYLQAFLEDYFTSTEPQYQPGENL
Chain of RET (P07949 29-1114, species assumed): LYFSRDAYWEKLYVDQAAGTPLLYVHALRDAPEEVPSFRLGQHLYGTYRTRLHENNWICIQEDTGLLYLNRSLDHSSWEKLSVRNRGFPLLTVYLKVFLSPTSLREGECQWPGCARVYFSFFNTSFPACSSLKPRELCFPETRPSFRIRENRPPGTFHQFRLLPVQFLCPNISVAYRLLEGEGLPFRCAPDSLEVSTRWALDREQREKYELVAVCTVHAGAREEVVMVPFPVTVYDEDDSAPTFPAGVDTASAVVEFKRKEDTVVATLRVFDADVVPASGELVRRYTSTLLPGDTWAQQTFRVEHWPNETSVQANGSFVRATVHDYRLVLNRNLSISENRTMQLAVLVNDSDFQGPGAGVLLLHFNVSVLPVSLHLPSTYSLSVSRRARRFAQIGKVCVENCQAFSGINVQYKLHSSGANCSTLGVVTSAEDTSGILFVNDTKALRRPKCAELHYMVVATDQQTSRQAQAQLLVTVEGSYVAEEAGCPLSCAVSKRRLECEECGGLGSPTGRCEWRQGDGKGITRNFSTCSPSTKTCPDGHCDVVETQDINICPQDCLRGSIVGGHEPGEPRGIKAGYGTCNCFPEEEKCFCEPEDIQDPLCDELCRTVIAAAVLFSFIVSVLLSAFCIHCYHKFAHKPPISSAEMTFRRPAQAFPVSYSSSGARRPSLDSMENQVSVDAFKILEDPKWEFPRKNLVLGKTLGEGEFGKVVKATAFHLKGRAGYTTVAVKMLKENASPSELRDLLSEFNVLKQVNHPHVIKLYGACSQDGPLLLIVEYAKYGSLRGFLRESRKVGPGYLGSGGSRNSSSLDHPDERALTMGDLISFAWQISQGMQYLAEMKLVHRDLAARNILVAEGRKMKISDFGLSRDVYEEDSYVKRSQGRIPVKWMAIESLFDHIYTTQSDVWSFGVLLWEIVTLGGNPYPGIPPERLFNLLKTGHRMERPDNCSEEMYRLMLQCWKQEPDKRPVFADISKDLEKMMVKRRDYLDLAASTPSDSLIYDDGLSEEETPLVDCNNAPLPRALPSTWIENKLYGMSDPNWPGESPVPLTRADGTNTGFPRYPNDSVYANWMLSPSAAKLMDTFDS
Chain of c-Kit (P10721 26-976): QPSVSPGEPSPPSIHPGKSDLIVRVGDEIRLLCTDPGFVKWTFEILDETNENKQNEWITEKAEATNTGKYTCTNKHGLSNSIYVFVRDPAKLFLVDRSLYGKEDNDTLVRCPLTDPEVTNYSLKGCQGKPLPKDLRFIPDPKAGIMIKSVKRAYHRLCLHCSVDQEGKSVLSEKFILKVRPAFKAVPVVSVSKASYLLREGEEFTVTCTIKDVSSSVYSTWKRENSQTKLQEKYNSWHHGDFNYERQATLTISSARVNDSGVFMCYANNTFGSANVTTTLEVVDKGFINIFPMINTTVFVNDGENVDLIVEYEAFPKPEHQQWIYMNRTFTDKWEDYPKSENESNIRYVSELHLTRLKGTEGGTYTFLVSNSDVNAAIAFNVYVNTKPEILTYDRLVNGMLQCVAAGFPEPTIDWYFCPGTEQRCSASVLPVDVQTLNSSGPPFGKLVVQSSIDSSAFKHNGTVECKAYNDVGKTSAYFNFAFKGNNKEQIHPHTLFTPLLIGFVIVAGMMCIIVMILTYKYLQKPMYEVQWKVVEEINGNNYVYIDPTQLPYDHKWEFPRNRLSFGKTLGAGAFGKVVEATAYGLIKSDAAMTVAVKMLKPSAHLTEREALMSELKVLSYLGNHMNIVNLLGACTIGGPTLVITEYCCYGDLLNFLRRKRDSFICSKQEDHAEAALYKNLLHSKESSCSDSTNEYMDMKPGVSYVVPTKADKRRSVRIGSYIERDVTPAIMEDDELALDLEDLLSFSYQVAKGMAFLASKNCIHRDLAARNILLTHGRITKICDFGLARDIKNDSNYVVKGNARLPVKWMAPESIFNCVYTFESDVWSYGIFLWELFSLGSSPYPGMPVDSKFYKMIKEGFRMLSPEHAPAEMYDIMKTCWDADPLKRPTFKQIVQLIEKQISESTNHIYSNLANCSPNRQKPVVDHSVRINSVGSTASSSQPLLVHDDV

`CCOC(=O)c1c(C)oc2ncnc(Oc3ccc(NC(=O)Nc4ccc(C)c(Cl)c4)cc3)c12` [Compound 16e] showed an activity at 10 µM [1] of 88.9%, an inhibition at 10 µM [1] of 11.1% and an inhibition at 10 µM [2] of 72%. The inhibition at 10 µM [3] was 1%, the IC50 [4] was 122 nM and the inhibition at 10 µM ([4]; single dose concentration of 10 μM) was greater than 70%. It also gave an inhibition at 10 µM [5] of 53% and an inhibition at 10 µM [6] of 84%.

With `CN[C@@H]1C[C@H]2O[C@@](C)([C@@H]1OC)n1c3ccccc3c3c4c(c5c6ccccc6n2c5c31)C(=O)NC4` [Staurosporine, reference compound] the inhibition at 1 µM ([3]; read-out: Inhibition %, c-Src, reference inhibitor) was 98%.

With `CNC(=O)c1cc(Oc2ccc(NC(=O)Nc3ccc(Cl)c(C(F)(F)F)c3)cc2)ccn1.Cc1ccc(S(=O)(=O)O)cc1` [Sorafenib p-toluenesulfonate, sorafenib p-toluenesulfonate, reference compound] the “TGI (%)” value ([7]; 10 mg/kg/day po) was 80.8%.

With `Cc1ccc(NC(=O)Nc2ccc(Oc3ncnc4sc5c(c34)CCCC5)cc2)cc1Cl` [Compound 21e] the “Active caspase 3 levels in EAC solid tumor” value [8] was “increased active caspase 3 levels”, the “Tumor Index” value ([7]; 5 mg/kg/day po, 8 consecutive days, mean ± SD, n = 6) was 0.041 ± 0.007 and the “TGI (%)” value ([7]; 5 mg/kg/day po) was 79.1%. For the same compound, the “Histopathological examination of EAC tumor sections (necrosis)” value (“Histopathological examination … (necrosis)” for short) ([7]; 5 mg/kg) was “moderate diffuse necrosis”, the “TGI (%)” value ([7]; 10 mg/kg/day po) was 82.7% and the “Histopathological examination … (necrosis)” value ([7]; 10 mg/kg) was “severe necrosis in a wide area”. For the same compound, the activity at 10 µM [1] was 54%, the inhibition at 10 µM [1] was 46% and the inhibition at 10 µM [2] was 64%. The “Brain Index” value ([9]; 5 mg/kg/day po) was 0.0167 ± 0.002, the “Heart Index” value ([9]; 5 mg/kg/day po) was 0.0044 ± 0.0013 and the “Kidney Index” value ([9]; 5 mg/kg/day po) was 0.012 ± 0.002. The “Liver Index” value ([9]; 5 mg/kg/day po) was 0.048 ± 0.006, the “Brain Index” value ([9]; 10 mg/kg/day po) was 0.0174 ± 0.002 and the “Heart Index” value ([9]; 10 mg/kg/day po) was 0.0056 ± 0.0009. The “Kidney Index” value ([9]; 10 mg/kg/day po) was 0.013 ± 0.002, the “Liver Index” value ([9]; 10 mg/kg/day po) was 0.057 ± 0.007 and the “Histopathological examination of liver, kidney, heart and brain samples” value [9] was “without any histopathological alterations in liver, kidney and brain”. For the same compound, the “Toxicity (overall statement)” value ([9]; oral, 5 and 10 mg/kg/day for 8 consecutive days) was “did not show any noticeable toxicity”, the “%MVD in EAC solid tumor” value [10] was “reduction of %MVD” and the inhibition at 10 µM [3] was 6%. For the same compound, the IC50 [4] was 21 nM, the “VEGFR-2 phosphorylation in EAC solid tumor” value [11] was “decreased VEGFR-2 phosphoryaltion” and the inhibition at 10 µM [5] was 71%. The inhibition at 10 µM [6] was 91% and the “Antiangiogenic effect in Miles vascular permeability assay” value [12] was “confirmed the antiangiogenic effects”.

For `CNC(=O)c1cc(Oc2ccc(NC(=O)Nc3ccc(Cl)c(C(F)(F)F)c3)cc2)ccn1` [Sorafenib], the IC50 [13] is given as 25 nM, the IC50 [14] is given as 33 nM and the IC50 [15] is given as 57 nM. The “Histopathological examination … (necrosis)” value ([7]; 10 mg/kg) was “wide severe necrosis”, the IC50 [16] was 50 nM and the “Histopathological examination of liver, kidney, heart and brain samples” value [9] was “Degenerative changes were found in the hepatocytes and hippocampus”. The inhibition at 1 µM ([5]; read-out: Inhibition %, c-Raf, reference inhibitor) was 92% and the IC50 [17] was 68 nM.

For `Cn1ccc2ncnc(Oc3ccc(NC(=O)Nc4cccc(C(F)(F)F)c4)c(F)c3)c21` [III], the IC50 [18] is listed as 6.2 nM.
